{
  "source": "the supplement of paper PMC10307832",
  "assay_in_all_cases": "relative viability (nuclei count vs DMSO), 5 days (fraction); higher = more cells survive",
  "key": {"[1]": {"test_system": "201T", "in_short": "(§1)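 Lung cancer cell lines were pin-tool dosed in 1536-well plates on the day after seeding, with either a lone drug or a fixed anchor-drug dose plus five library-drug doses (not always all listed) in √10 steps. Nuclei were counted on 4× images after 5 days. Relative viability is the ratio of treated-well to vehicle-well nuclei counts, with each value a median of duplicate plates.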"}, "[2]": {"test_system": "A-427", "in_short": "as §1"}, "[3]": {"test_system": "COR-L 105", "in_short": "as §1"}, "[4]": {"test_system": "COR-L23", "in_short": "as §1"}, "[5]": {"test_system": "EKVX", "in_short": "as §1"}, "[6]": {"test_system": "HARA", "in_short": "as §1"}, "[7]": {"test_system": "HCC-15", "in_short": "as §1"}, "[8]": {"test_system": "HCC-44", "in_short": "as §1"}, "[9]": {"test_system": "HCC-827", "in_short": "as §1"}, "[10]": {"test_system": "LCLC-103H", "in_short": "as §1"}, "[11]": {"test_system": "LK-2", "in_short": "as §1"}, "[12]": {"test_system": "NCI-H1437", "in_short": "as §1"}, "[13]": {"test_system": "NCI-H1666", "in_short": "as §1"}, "[14]": {"test_system": "NCI-H1792", "in_short": "as §1"}, "[15]": {"test_system": "NCI-H1975", "in_short": "as §1"}, "[16]": {"test_system": "NCI-H23", "in_short": "as §1"}, "[17]": {"test_system": "NCI-H441", "in_short": "as §1"}, "[18]": {"test_system": "NCI-H520", "in_short": "as §1"}, "[19]": {"test_system": "NCI-H596", "in_short": "as §1"}, "[20]": {"test_system": "NCI-H650", "in_short": "as §1"}, "[21]": {"test_system": "NCI-H838", "in_short": "as §1"}, "[22]": {"test_system": "SK-MES-1", "in_short": "as §1"}},
  "data": [
    {"molecule": "C[C@@H]1CN(CC(=O)Nc2ccc3c(c2)Cc2cccc(-c4cc(=O)cc(N5CCOCC5)o4)c2S3)C[C@H](C)O1", "note": "+ C[C@]1(O)C[C@@H](c2nc(-c3ccc4ccc(-c5ccccc5)nc4c3)c3c(N)nccn32)C1 [Linsitinib] (partner 1 µM)", "values": [
      {"measurement": "relative viability", "setting": "[1]; first compound 0.04 µM", "result": 1.09},
      {"measurement": "relative viability", "setting": "[1]; first compound 0.1265 µM", "result": 1.01},
      {"measurement": "relative viability", "setting": "[1]; first compound 0.4 µM", "result": 1.01},
      {"measurement": "relative viability", "setting": "[1]; first compound 4 µM", "result": 1.01},
      {"measurement": "relative viability", "setting": "[2]; first compound 0.04 µM", "result": 1.23},
      {"measurement": "relative viability", "setting": "[2]; first compound 0.1265 µM", "result": 1.14},
      {"measurement": "relative viability", "setting": "[2]; first compound 0.4 µM", "result": 1.12},
      {"measurement": "relative viability", "setting": "[2]; first compound 4 µM", "result": 1.11},
      {"measurement": "relative viability", "setting": "[3]; first compound 0.04 µM", "result": 1.01},
      {"measurement": "relative viability", "setting": "[3]; first compound 0.1265 µM", "result": 1.1},
      {"measurement": "relative viability", "setting": "[3]; first compound 0.4 µM", "result": 0.746},
      {"measurement": "relative viability", "setting": "[3]; first compound 4 µM", "result": 0.996},
      {"measurement": "relative viability", "setting": "[4]; first compound 0.04 µM", "result": 0.97},
      {"measurement": "relative viability", "setting": "[4]; first compound 0.1265 µM", "result": 0.878},
      {"measurement": "relative viability", "setting": "[4]; first compound 0.4 µM", "result": 0.936},
      {"measurement": "relative viability", "setting": "[4]; first compound 4 µM", "result": 0.796},
      {"measurement": "relative viability", "setting": "[5]; first compound 0.04 µM", "result": 0.954},
      {"measurement": "relative viability", "setting": "[5]; first compound 0.1265 µM", "result": 0.982},
      {"measurement": "relative viability", "setting": "[5]; first compound 0.4 µM", "result": 0.963},
      {"measurement": "relative viability", "setting": "[5]; first compound 4 µM", "result": 0.972},
      {"measurement": "relative viability", "setting": "[6]; first compound 0.04 µM", "result": 0.997},
      {"measurement": "relative viability", "setting": "[6]; first compound 0.1265 µM", "result": 0.876},
      {"measurement": "relative viability", "setting": "[6]; first compound 0.4 µM", "result": 0.893},
      {"measurement": "relative viability", "setting": "[6]; first compound 4 µM", "result": 0.906},
      {"measurement": "relative viability", "setting": "[7]; first compound 0.04 µM", "result": 0.85},
      {"measurement": "relative viability", "setting": "[7]; first compound 0.1265 µM", "result": 0.809},
      {"measurement": "relative viability", "setting": "[7]; first compound 0.4 µM", "result": 0.878},
      {"measurement": "relative viability", "setting": "[7]; first compound 4 µM", "result": 0.674},
      {"measurement": "relative viability", "setting": "[8]; first compound 0.04 µM", "result": 0.636},
      {"measurement": "relative viability", "setting": "[8]; first compound 0.1265 µM", "result": 0.683},
      {"measurement": "relative viability", "setting": "[8]; first compound 0.4 µM", "result": 0.537},
      {"measurement": "relative viability", "setting": "[8]; first compound 4 µM", "result": 0.632},
      {"measurement": "relative viability", "setting": "[9]; first compound 0.04 µM", "result": 1},
      {"measurement": "relative viability", "setting": "[9]; first compound 0.1265 µM", "result": 0.895},
      {"measurement": "relative viability", "setting": "[9]; first compound 0.4 µM", "result": 0.978},
      {"measurement": "relative viability", "setting": "[9]; first compound 4 µM", "result": 0.954},
      {"measurement": "relative viability", "setting": "[10]; first compound 0.04 µM", "result": 1.09},
      {"measurement": "relative viability", "setting": "[10]; first compound 0.1265 µM", "result": 0.896},
      {"measurement": "relative viability", "setting": "[10]; first compound 0.4 µM", "result": 1.18},
      {"measurement": "relative viability", "setting": "[10]; first compound 4 µM", "result": 1.14},
      {"measurement": "relative viability", "setting": "[11]; first compound 0.04 µM", "result": 0.255},
      {"measurement": "relative viability", "setting": "[11]; first compound 0.1265 µM", "result": 0.394},
      {"measurement": "relative viability", "setting": "[11]; first compound 0.4 µM", "result": 0.666},
      {"measurement": "relative viability", "setting": "[11]; first compound 4 µM", "result": 0.824},
      {"measurement": "relative viability", "setting": "[12]; first compound 0.04 µM", "result": 1.01},
      {"measurement": "relative viability", "setting": "[12]; first compound 0.1265 µM", "result": 0.989},
      {"measurement": "relative viability", "setting": "[12]; first compound 0.4 µM", "result": 0.939},
      {"measurement": "relative viability", "setting": "[12]; first compound 4 µM", "result": 0.575},
      {"measurement": "relative viability", "setting": "[13]; first compound 0.04 µM", "result": 1.08},
      {"measurement": "relative viability", "setting": "[13]; first compound 0.1265 µM", "result": 0.908},
      {"measurement": "relative viability", "setting": "[13]; first compound 0.4 µM", "result": 0.839},
      {"measurement": "relative viability", "setting": "[13]; first compound 4 µM", "result": 0.565},
      {"measurement": "relative viability", "setting": "[14]; first compound 0.04 µM", "result": 0.503},
      {"measurement": "relative viability", "setting": "[14]; first compound 0.1265 µM", "result": 0.519},
      {"measurement": "relative viability", "setting": "[14]; first compound 0.4 µM", "result": 0.564},
      {"measurement": "relative viability", "setting": "[14]; first compound 4 µM", "result": 0.425},
      {"measurement": "relative viability", "setting": "[15]; first compound 0.04 µM", "result": 0.895},
      {"measurement": "relative viability", "setting": "[15]; first compound 0.1265 µM", "result": 0.866},
      {"measurement": "relative viability", "setting": "[15]; first compound 0.4 µM", "result": 0.81},
      {"measurement": "relative viability", "setting": "[15]; first compound 4 µM", "result": 0.8},
      {"measurement": "relative viability", "setting": "[16]; first compound 0.04 µM", "result": 0.609},
      {"measurement": "relative viability", "setting": "[16]; first compound 0.1265 µM", "result": 0.496},
      {"measurement": "relative viability", "setting": "[16]; first compound 0.4 µM", "result": 0.489},
      {"measurement": "relative viability", "setting": "[16]; first compound 4 µM", "result": 0.494},
      {"measurement": "relative viability", "setting": "[17]; first compound 0.04 µM", "result": 0.404},
      {"measurement": "relative viability", "setting": "[17]; first compound 0.1265 µM", "result": 0.573},
      {"measurement": "relative viability", "setting": "[17]; first compound 0.4 µM", "result": 0.536},
      {"measurement": "relative viability", "setting": "[17]; first compound 4 µM", "result": 0.433},
      {"measurement": "relative viability", "setting": "[18]; first compound 0.04 µM", "result": 1.1},
      {"measurement": "relative viability", "setting": "[18]; first compound 0.1265 µM", "result": 0.83},
      {"measurement": "relative viability", "setting": "[18]; first compound 0.4 µM", "result": 0.748},
      {"measurement": "relative viability", "setting": "[18]; first compound 4 µM", "result": 0.837},
      {"measurement": "relative viability", "setting": "[19]; first compound 0.04 µM", "result": 1.12},
      {"measurement": "relative viability", "setting": "[19]; first compound 0.1265 µM", "result": 1.15},
      {"measurement": "relative viability", "setting": "[19]; first compound 0.4 µM", "result": 0.922},
      {"measurement": "relative viability", "setting": "[19]; first compound 4 µM", "result": 1},
      {"measurement": "relative viability", "setting": "[20]; first compound 0.04 µM", "result": 0.85},
      {"measurement": "relative viability", "setting": "[20]; first compound 0.1265 µM", "result": 0.729},
      {"measurement": "relative viability", "setting": "[20]; first compound 0.4 µM", "result": 0.86},
      {"measurement": "relative viability", "setting": "[20]; first compound 4 µM", "result": 0.584},
      {"measurement": "relative viability", "setting": "[21]; first compound 0.04 µM", "result": 0.931},
      {"measurement": "relative viability", "setting": "[21]; first compound 0.1265 µM", "result": 0.984},
      {"measurement": "relative viability", "setting": "[21]; first compound 0.4 µM", "result": 0.871},
      {"measurement": "relative viability", "setting": "[21]; first compound 4 µM", "result": 0.688},
      {"measurement": "relative viability", "setting": "[22]; first compound 0.04 µM", "result": 1.13},
      {"measurement": "relative viability", "setting": "[22]; first compound 0.1265 µM", "result": 1.06},
      {"measurement": "relative viability", "setting": "[22]; first compound 0.4 µM", "result": 1.02},
      {"measurement": "relative viability", "setting": "[22]; first compound 4 µM", "result": 0.836}
    ]}
  ]
}
